Source: US8829185B2 (Bayer HealthCare LLC, priority 2005, dated 2014)

Key:
FGFR1-GST = target: T1, FGFR1-GST (Homo sapiens, UniProt P11362); assay: FGFR-1 TR-FRET biochemical assay; conditions: bounds given in nM
T1 construct: GST; made in house
In short: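 LANCE TR-FRET with 5 nM FGFR1-GST, 0.6 uM ATP, 25 nM biotin-poly GT in HEPES pH 7.5/MgCl2, 1% DMSO; compound added before enzyme, 1 h at room temperature. 665/615 nm ratio, background without ATP; % inhibition over 10 μM–0.128 nM final for IC50.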

HCT116 cells = assay: Tumor cell proliferation (Alamar Blue), HCT116; type: cell-based; conditions: Homo sapiens, HCT-116, 72 h, HCT116, 72 h
Procedure: (§1) Human tumor cells (e.g., HCT116 or MDA-MB-231 cells), were seeded in a Costar 96-well plate at 3.0×10^3 cells/well and grown in 150 μl of RPMI complete media (Invitrogen Corporation, Grand Island, N.Y.) containing 10% fetal bovine serum (Hyclone, Logan, Utah) at 37° C. for 16 h in an incubator with 5% CO2. To each well, 50 μl of additional growth media containing 40 μM to 18 nM concentrations of compound with 0.4% DMSO was added. Cells were grown for another 72 h at 37° C. with 5% CO2. 20 μl of Alamar Blue (Trek Diagnostic Systems, Inc., Cleveland, Ohio) reagent was added to each well and incubated for 3 h at 37° C. Plates were read in a SpectraMax Gemini (Molecular Devices, CA) with 544 nm excitation and 590 nm emission wavelength. IC50 values were determined by linear regression analysis of log drug concentration versus percent inhibition.

MDA-MB-231 cells = assay: Tumor cell proliferation (Alamar Blue), MDA-MB-231; type: cell-based; conditions: Homo sapiens, MDA-MB-231, 72 h
Procedure: as §1

[1] = system: histone 3 phosphorylation in colon carcinoma (HCT116); assay: p-Histone3 assay; type: cell-based; conditions: Homo sapiens, HCT-116, 24 h, HCT116, 24 hours treatment
Procedure: Compounds were assayed for the inhibition of histone 3 phosphorylation in colon carcinoma (HCT116). Briefly, 20,000 cells/well were seeded in a 96-well black-walled, poly-d-lysine plates in RPMI+10% FBS and incubated at 37° C. in 5% CO2 overnight. The following day, the cells were treated with compounds for 24 hours at 37° C. Following compound treatment; plates were centrifuged at 1000 rpm for 2 minutes and washed twice with 100 μl of cold sterile TBS. Cells were then fixed with cold 3.7% formaldehyde in TBS (4° C. for 1 hour) and then permeabalized with 0.1% Triton-X-100 in TBS (room temperature for 30 minutes). Plates were then washed with of 0.25% BSA-TBS and blocked with BSA solution for 1 hour at room temperature while shaking. The supernatant was removed and replaced with diluted primary antibody (anti-phospho-histone 3, serine 10, Cell Signaling) at 1:250 in 0.25% BSA-TBS and incubated overnight at 4° C. The plates were washed and treated with diluted secondary antibody (anti-rabbit Eu-labeled) at 1:10000 in 0.25% BSA-TBS (room temperature for 1 hour). The antibody solution was removed from each well and washed eight times. The wash buffer was replaced with 50 μl pre-warmed enhancement solution and mixed on the orbital shaker for 10 minutes. Fluorescence was detected with a Victor V Fluorescence Detector. The data are expressed as percent inhibition: % inhibition=100−((Signal with inhibitor-background)/(Signal without inhibitor-background))×100.

T1 sequence (P11362 22-822): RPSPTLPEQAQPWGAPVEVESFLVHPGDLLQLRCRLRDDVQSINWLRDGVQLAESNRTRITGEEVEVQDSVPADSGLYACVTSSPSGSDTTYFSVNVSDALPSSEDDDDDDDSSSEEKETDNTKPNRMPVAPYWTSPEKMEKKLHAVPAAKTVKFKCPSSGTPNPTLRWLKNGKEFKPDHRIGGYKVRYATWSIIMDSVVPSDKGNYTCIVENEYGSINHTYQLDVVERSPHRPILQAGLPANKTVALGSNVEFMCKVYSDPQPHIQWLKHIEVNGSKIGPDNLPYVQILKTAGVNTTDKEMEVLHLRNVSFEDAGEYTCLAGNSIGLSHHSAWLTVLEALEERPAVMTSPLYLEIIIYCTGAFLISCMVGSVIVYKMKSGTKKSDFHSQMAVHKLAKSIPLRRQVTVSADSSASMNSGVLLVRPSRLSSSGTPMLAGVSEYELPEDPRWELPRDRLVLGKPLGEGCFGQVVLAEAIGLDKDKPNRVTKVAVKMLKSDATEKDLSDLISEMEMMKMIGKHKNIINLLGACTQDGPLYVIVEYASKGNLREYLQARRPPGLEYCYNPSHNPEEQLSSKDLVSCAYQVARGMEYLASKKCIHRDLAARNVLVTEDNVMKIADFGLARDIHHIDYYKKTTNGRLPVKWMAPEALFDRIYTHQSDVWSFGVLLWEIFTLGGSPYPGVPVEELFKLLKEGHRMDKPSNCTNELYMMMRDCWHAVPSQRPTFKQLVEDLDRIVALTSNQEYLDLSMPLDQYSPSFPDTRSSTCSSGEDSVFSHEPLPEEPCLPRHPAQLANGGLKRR

IC50 (FGFR1-GST) [nM] | IC50 (HCT116 cells; lower bound in nM) [nM] | IC50 (HCT116 cells; upper bound given in μM) [nM] | IC50 (MDA-MB-231 cells; lower bound in nM) [nM] | IC50 (MDA-MB-231 cells; upper bound given in μM) [nM] | IC50 ([1]; bounds given in μM) [µM] | IC50 ([1]; lower bound in nM) [µM] | Structure (SMILES)
< 10 | > 500 | < 4000 | > 500 | < 5000 | 5 to 10 | – | COCc1c(-c2ccc(NC(=O)Nc3cc(C(F)(F)F)ccc3F)cc2)c2c(N)ncnn2c1CN1CCOCC1 [Example 12, N-{4-[4-amino-6-(methoxymethyl)-7-(morpholin-4-ylmethyl)pyrrolo[2,1-f][1,2,4]triazin-5-yl]phenyl}-N′-[2-fluoro-5-(trifluoromethyl)phenyl]urea]
10 to 100 | > 500 | < 4000 | > 500 | < 5000 | < 5 | > 0.5 | COCc1c(-c2ccc(NC(=O)Nc3cc(C(F)(F)F)ccc3F)cc2)c2c(N)ncnn2c1CN1CCN(C)CC1 [Example 13, N-(4-{4-amino-6-(methoxymethyl)-7-[(4-methylpiperazin-1-yl)methyl]pyrrolo[2,1-f][1,2,4]triazin-5-yl}phenyl)-N′-[2-fluoro-5-(trifluoro-methyl)phenyl]urea]
10 to 100 | > 500 | < 4000 | > 500 | < 5000 | < 5 | > 0.5 | N#Cc1c(C(=O)NCC(F)(F)F)c(-c2ccc(NC(=O)Nc3cc(C(F)(F)F)ccn3)cc2)c2c(N)ncnn12 [Example 7, 4-amino-7-cyano-N-(2,2,2-trifluoroethyl)-5-{4-[({[4-(trifluoromethyl)pyridin-2-yl]amino}carbonyl)-amino]phenyl}pyrrolo[2,1-f][1,2,4]triazine-6-carboxamide]
